Measured values taken from publication PMC6161602, “Synthesis and characterisation of (Z)-styrylbenzene derivatives as potential selective anticancer agents” (Journal of Enzyme Inhibition and Medicinal Chemistry, 2018).

What was measured:
L-02 cells = system: L-02 cells; design: method as in PMID 27887843; settings: L-02, printed in Figure 1, previous experiment ref 2; cited from earlier work
HeLa cells = system: HeLa cells; design: method as in PMID 27887843; settings: printed in Figure 1, previous experiment ref 2; cited from earlier work
MCF-7 breast cancer cell = assay: MTT cell growth inhibition assay, MCF-7; format: cell-based, human; settings: for IC50: Homo sapiens, MCF7, MTT, 48 h incubation, MCF-7
Description: (§1) All human cell lines were used in this study. MGC-803 late-stage differentiation gastric cancer cell, A549 lung cancer cell, HepG2 hepatoma cell, AGS gastric cancer cell, BEL-7402 liver cancer cell, HCT-116 colorectal cancer cell, HeLa cervical cancer cell, SGC-7901 early differentiation gastric cancer cell, L-02 normal liver cell, MCF-7 breast cancer cell, and MCF-10A normal breast cell were initially purchased from American Type Culture Collection (ATCC, Manassas, VA, USA). RPMI-1640 media, Dulbecco’s modified Eagle’s medium (DMEM), and foetal bovine serum (FBS) were provided from Gibco Company (Grand Island, NY, USA). The cells were maintained in DMEM or RPMI-1640, supplemented with 10% FBS, 100 IU/mL penicillin and […] (Grand Island, NY, USA), and at 37 °C in a humidified atmosphere containing 5% CO2.
(§2) Cells were plated in 96-well plates at a density of 30–40% to ensure exponential growth throughout the experimental period, and then allowed to adhere for 1 day[21]. Next, the cells were treated with four serial concentrations (1, 10, 50, and 100 µM) of each compound. Taxol, CA-4, and CA-4P (phosphorylated form of CA-4) were used as positive controls. After 48 h incubation, MTT solution was added to each well at a final concentration of 2 mg/mL, and incubated for an additional 4 h. Next, the MTT solution was removed and 150 µL of dimethyl sulphoxide (DMSO)/well was added (Sigma-Aldrich, St Louis, MO, USA). The plates were shaken vigorously at RT to ensure complete solubilisation, and absorption at 492 nm was determined.
(§3) According to standard protocol, preliminary in vitro anti-proliferative activities of the synthesised compounds were evaluated by MTT assay, using nine human cancer cell lines (MGC-803, A549, HepG2, AGS, BEL-7402, HCT116, HeLa, SGC-7901, and MCF-7) and two normal human cell lines (L-02 and MCF-10A), and compared with those of CA-4, CA-4P, and taxol.

L-02 normal liver cell = assay: MTT cell growth inhibition assay, L-02 (normal); format: cell-based, human; settings: Homo sapiens, 48 h incubation, L-02 normal cells
Description: as §1, §2, §3

[1] = system: HeLa cervical cancer cell; assay: MTT cell growth inhibition assay, HeLa; format: cell-based, human; settings: Homo sapiens, 48 h incubation
Description: as §1, §2, §3

AGS cells = assay: MTT cell growth inhibition assay, AGS; format: cell-based, human; settings: for IC50: Homo sapiens, MTT, 48 h incubation, AGS
Description: as §1, §2, §3

HCT116 cells = assay: MTT cell growth inhibition assay, HCT116; format: cell-based, human; settings: for IC50: Homo sapiens, HCT-116, MTT, 48 h incubation, HCT116
Description: as §1, §2, §3

[2] = system: SGC-7901 early differentiation gastric cancer cell; assay: MTT cell growth inhibition assay, SGC-7901; format: cell-based, human; settings: Homo sapiens, 48 h incubation
Description: as §1, §2, §3

MGC-803 cells = assay: MTT cell growth inhibition assay, MGC-803; format: cell-based, human; settings: for IC50: MTT, 48 h incubation, MGC-803
Description: as §1, §2, §3

BEL-7402 cells [3] = assay: MTT cell growth inhibition assay, BEL-7402; format: cell-based, human; settings: for IC50: Homo sapiens, MTT, 48 h incubation, Bel-7402
Description: as §1, §2, §3

[4] = system: nine human cancer cell lines (MGC-803, A549, HepG2, AGS, BEL-7402, HCT116, HeLa, SGC-7901, and MCF-7); assay: MTT assay, panel of cell lines (result in words); format: cell-based; settings: against all nine cancer cell lines
Description: as §1, §2, §3

HepG2 hepatoma cell = assay: MTT cell growth inhibition assay, HepG-2; format: cell-based, human; settings: for IC50: Homo sapiens, HepG2, MTT, 48 h incubation, HepG-2
Description: as §1, §2, §3

[5] = system: MCF-10A normal breast cell; assay: MTT cell growth inhibition assay, MCF-10A (normal); format: cell-based, human; settings: Homo sapiens, 48 h incubation, MCF-10A normal cells
Description: as §1, §2, §3

A549 lung cancer cell = assay: MTT cell growth inhibition assay, A549; format: cell-based, human; settings: for IC50: Homo sapiens, MTT, 48 h incubation, A549
Description: as §1, §2, §3

BEL-7402 cells [6] = assay: Analysis of apoptosis by flow cytometry (Annexin V-FITC/PI); format: cell-based, human; settings: BEL-7402, 0.1 µM, 12 h; vehicle 4.7%
Description: Apoptosis was detected using an apoptosis detection kit. BEL-7402 cells were plated in 6-well plates (5.0 × 10^5 cells/well) and incubated at 37 °C overnight. Exponentially growing cells were then incubated with 6h at either 0.01 or 0.1 µM, or taxol at 0.1 µM. Vehicle group was treated with 0.1% DMSO. Following 12 h of incubation, cells were analysed for apoptosis as previously described, using a FACSCalibur flow cytometer with Cell Quest software (Becton-Dickinson, Franklin Lakes, NJ, USA).

IC50 (MCF-7 breast cancer cell)	IC50 [1]	IC50 (AGS cells)	melting point	IC50 (HCT116 cells)	IC50 [2]	IC50 (MGC-803 cells; Homo sapiens, MGC-803, 48 h)	IC50 (BEL-7402 cells [3])	IC50 (HepG2 hepatoma cell)	IC50 (A549 lung cancer cell)	SMILES	IC50 (L-02 normal liver cell)	in vitro anticancer activity [4]	IC50 [5]	also measured
										CCOc1ccc(/C=C(\C#N)c2cc(OC)cc(OC)c2)cc1 [Compound 3]				IC50 (L-02 cells): > 100 µM; IC50 (HeLa cells): 7.7 µM
> 100 µM	> 100 µM	> 100 µM	174 to 176 °C	> 100 µM	> 100 µM	> 100 µM	> 100 µM	> 100 µM	> 100 µM	COc1cc(/C(C#N)=C/c2ccc([N+](=O)[O-])cc2)cc(OC)c1OC [Compound 6a, (Z)-3-(4-Nitrophenyl)-2-(3,4,5-trimethoxyphenyl)acrylonitrile]	> 100 µM	extremely poor	> 100 µM	
> 100 µM	> 100 µM	> 100 µM	92 to 94 °C	> 100 µM	> 100 µM	> 100 µM	> 100 µM	> 100 µM	> 100 µM	COc1cc(/C(C#N)=C/c2ccc(Oc3ccccc3)cc2)cc(OC)c1OC [Compound 6b]	> 100 µM	extremely poor	> 100 µM	
32.9 ± 17.6 µM	> 100 µM	44.6 ± 9.11 µM	84 to 86 °C	32.1 ± 5.25 µM	> 100 µM	> 100 µM	31.2 ± 2.01 µM	> 100 µM	> 100 µM	COc1cc(/C=C(\C#N)c2cc(OC)c(OC)c(OC)c2)cc(OC)c1OC [Compound 6e, (Z)-2,3-Bis(3,4,5-trimethoxyphenyl)acrylonitrile]	70.6 ± 7.65 µM	weak anticancer activity	15.6 ± 2.45 µM	
16 ± 5.67 µM	> 100 µM	> 100 µM	128 to 130 °C	> 100 µM	> 100 µM	> 100 µM	44.6 ± 32.7 µM	> 100 µM	> 100 µM	COc1cc(/C(C#N)=C/c2ccccn2)cc(OC)c1OC [Compound 7b, (Z)-3-(Pyridin-2-yl)-2-(3,4,5-trimethoxyphenyl)acrylonitrile]	> 100 µM	extremely poor	33.4 ± 17.4 µM	
> 100 µM	> 100 µM	27.9 ± 5.84 µM	68 to 70 °C	> 100 µM	> 100 µM	> 100 µM	> 100 µM	> 100 µM	> 100 µM	Cc1ccc(/C=C(\C#N)c2ccc(C)cc2)cc1 [Compound 13a, (Z)-2,3-Di-p-tolylacrylonitrile]	> 100 µM		> 100 µM	
35 ± 14.8 µM	> 100 µM	26.5 ± 3.89 µM	112 to 114 °C	> 100 µM	> 100 µM	> 100 µM	> 100 µM	> 100 µM	> 100 µM	CCc1ccc(/C=C(\C#N)c2ccc(C)cc2)cc1 [Compound 13b, (Z)-3-(4-Ethylphenyl)-2-(p-tolyl)acrylonitrile]	> 100 µM		85.7 ± 3.12 µM	
33.9 ± 7.3 µM	> 100 µM	66.2 ± 3.65 µM	135 to 137 °C	79.2 ± 5.21 µM	> 100 µM	> 100 µM	77.3 ± 0.26 µM	> 100 µM	> 100 µM	COc1cc(/C=C(\C#N)c2ccc(C)cc2)cc(OC)c1OC [Compound 13c, (Z)-2-(p-Tolyl)-3-(3,4,5-trimethoxyphenyl)acrylonitrile]	> 100 µM		> 100 µM	
> 100 µM	> 100 µM	> 100 µM	145 to 147 °C	> 100 µM	> 100 µM	89.2 ± 3.2 µM	> 100 µM	> 100 µM	> 100 µM	Cc1ccc(/C(C#N)=C/c2ccccc2)cc1 [Compound 13d, (Z)-3-Phenyl-2-(p-tolyl)acrylonitrile]	> 100 µM		> 100 µM	
> 100 µM	> 100 µM	> 100 µM	128 to 130 °C	> 100 µM	> 100 µM	> 100 µM	> 100 µM	> 100 µM	> 100 µM	Cc1ccc(/C(C#N)=C/c2cccs2)cc1 [Compound 14a, (Z)-3-(Thiophen-2-yl)-2-(p-tolyl)acrylonitrile]	> 100 µM		> 100 µM	
> 100 µM	> 100 µM	> 100 µM	102 to 104 °C	> 100 µM	> 100 µM	> 100 µM	> 100 µM	> 100 µM	> 100 µM	Cc1ccc(/C(C#N)=C/c2ccccn2)cc1 [Compound 14b, (Z)-3-(Pyridin-2-yl)-2-(p-tolyl)acrylonitrile]	> 100 µM		> 100 µM	
										Oc1ccc(/C=C/c2cc(O)cc(O)c2)cc1 [Resveratrol, (E)-3,5,4′-trihydroxystilbene]				IC50 (HeLa cells): 120 µM
0.08 ± 0.01 µM	13 ± 0.47 µM	0.02 ± 0.01 µM		0.03 ± 0.01 µM	> 100 µM	< 0.06 µM	0.09 ± 0.02 µM	0.94 ± 0.03 µM	0.44 ± 0.02 µM	CC(=O)O[C@H]1C(=O)[C@@]2(C)[C@H]([C@H](OC(=O)c3ccccc3)[C@]3(O)C[C@H](OC(=O)[C@H](O)[C@@H](NC(=O)c4ccccc4)c4ccccc4)C(C)=C1C3(C)C)[C@]1(OC(C)=O)CO[C@@H]1C[C@@H]2O [Taxol, reference compound]	> 100 µM		0.18 ± 0.02 µM	SI IC50 (MCF-10A/MCF-7) (MCF-7 breast cancer cell; selectivity index, IC50 (MCF-10A)/IC50 (MCF-7)): >2.2; SI IC50 (L-02/AGS) (AGS cells; selectivity index, IC50 (L-02)/IC50 (AGS)): >5000; SI IC50 (L-02/HCT116) (HCT116 cells; selectivity index, IC50 (L-02)/IC50 (HCT116)): >3333; IC50 (MGC-803 cells): 0.06 ± 0.01 µM; SI IC50 (L-02/MGC-803) (MGC-803 cells; selectivity index, IC50 (L-02)/IC50 (MGC-803)): >1666; SI IC50 (L-02/BEL-7402) (BEL-7402 cells [3]; selectivity index, IC50 (L-02)/IC50 (BEL-7402)): >1111; SI IC50 (L-02/HepG-2) (HepG2 hepatoma cell; selectivity index, IC50 (L-02)/IC50 (HepG-2)): >106.3; total apoptotic cells (early + late apoptotic cells) (BEL-7402 cells [6]): 10.7%; SI IC50 (L-02/A549) (A549 lung cancer cell; selectivity index, IC50 (L-02)/IC50 (A549)): >227.2

SMILES	IC50 (MCF-7 breast cancer cell)	IC50 [1]	IC50 (AGS cells)	melting point	IC50 (HCT116 cells)	IC50 [2]	IC50 (MGC-803 cells; Homo sapiens, MGC-803, 48 h)	IC50 (BEL-7402 cells [3])	IC50 (HepG2 hepatoma cell)	IC50 (A549 lung cancer cell)	IC50 (L-02 normal liver cell)	in vitro anticancer activity [4]	IC50 [5]	also measured
COc1cccc(/C=C(\C#N)c2cc(OC)c(OC)c(OC)c2)c1 [Compound 6c, (Z)-3-(3-Methoxyphenyl)-2-(3,4,5-trimethoxyphenyl)acrylonitrile]	65.1 ± 6.64 µM	> 100 µM	> 100 µM	144 to 146 °C	> 100 µM	> 100 µM		> 100 µM	> 100 µM	> 100 µM	> 100 µM	extremely poor	> 100 µM	IC50 (MGC-803 cells; Homo sapiens): 22.6 ± 9.25 µM
